Experimental findings from ChEMBL document CHEMBL3832078 are described below.

“And” between values parts separate entries of the source, which are not always exact repeats. Equal values may be shown once.

What all share (format): ADME, organism-based
The nature of data set [1]: (§1) Pharmacokinetic parameters for Levofloxacin evaluated after multiple oral or IV administration of 250, 500 or 750 mg Levofloxacin, to male and/or female subjects of variable age ranges and health status. The settings on record: human, in vivo; for CL renal: read-out: CL_renal. Also on record: dose 500 mg, dose 750 mg, dose 250 mg, route iv, route oral.
Data set [2] concerns Homo sapiens. Described as §1. Also on record: dose 500 mg, dose 750 mg, dose 250 mg, route iv, route oral. The settings on record: in vivo.
A short description of data set [3]: (§2) Pharmacokinetic parameters for Levofloxacin evaluated after oral or IV single dose administration of 250, 500 or 750 mg Levofloxacin to male and/or female subjects of variable age ranges and health status. Also on record: dose 250 mg, dose 500 mg, dose 750 mg, route oral, route iv. The note with it: human, in vivo.
In data set [4] the test system is Homo sapiens. Described as §2. Also on record: dose 250 mg, dose 500 mg, dose 750 mg, route oral, route iv. The settings on record: in vivo.

`C[C@H]1COc2c(N3CCN(C)CC3)c(F)cc3c(=O)c(C(=O)O)cn1c23.C[C@H]1COc2c(N3CCN(C)CC3)c(F)cc3c(=O)c(C(=O)O)cn1c23.O` [LEVOFLOXACIN]: the half-life in data set [1] (iv) is 7.9 h; in data set [1] (po), 8.8 h; in data set [3] (iv) it was 6.4 h. The CL renal in data set [1] (iv) came to 99 mL/min; in data set [1] (po), 116 mL/min; in data set [3] (iv, read-out: CL_renal), 112 mL/min. In addition, the apparent clearance (CL/F) in data set [1] (po) is 175 mL/min; in data set [2] (iv) it was 154 mL/min and 126 mL/min and 158 mL/min; in data set [2] (po), 143 mL/min; in data set [4] (iv), 175 mL/min and 126 mL/min. Also, the Tmax is 1.4 h in data set [1] (po) and 1 h in data set [3] (iv). Moreover, the Vd/F in data set [1] (po) was 102 L; in data set [2] (iv), 111 L and 80 L and 91 L; in data set [2] (po), 100 L; in data set [3] (po), 112 L; in data set [4] (iv), 90 L and 75 L; in data set [4] (po), 83 L and 89 L and 62 L and 67 L. Also, the AUC in data set [2] was 72.5 mcg.hr/mL [middle of 5 runs]. The Cmax in data set [2] was 8.6 mcg/mL [middle of 5 runs]. In addition, the t1/2 in data set [2] (iv) amounted to 7 h; in data set [4] (iv), 7.5 h.
